Experimental data reported in PubChem BioAssay (NCI).
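48-hour exposure; five concentrations; linearly interpolated endpoints. At the GI50, growth is halved. TGI marks complete inhibition of growth.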

Columns and labels:
Experiment in all cases: NCI-60 cell line screen, 48 h
TK-10 renal = system: TK-10 renal
MOLT-4 leukemia = system: MOLT-4 leukemia
M14 melanoma = system: M14 melanoma
SNB-75 CNS = system: SNB-75 CNS
OVCAR-5 ovarian = system: OVCAR-5 ovarian
K-562 leukemia = system: K-562 leukemia
786-0 renal = system: 786-0 renal
SK-MEL-5 melanoma = system: SK-MEL-5 melanoma
HOP-92 NSCLC = system: HOP-92 NSCLC
HS 578T breast = system: HS 578T breast
UACC-62 melanoma = system: UACC-62 melanoma
EKVX NSCLC = system: EKVX NSCLC
UO-31 renal = system: UO-31 renal
SF-268 CNS = system: SF-268 CNS
A498 renal = system: A498 renal
SR leukemia = system: SR leukemia
PC-3 prostate = system: PC-3 prostate
SK-MEL-28 melanoma = system: SK-MEL-28 melanoma
HCT-116 colon = system: HCT-116 colon
A549 NSCLC = system: A549 NSCLC
SK-MEL-2 melanoma = system: SK-MEL-2 melanoma
UACC-257 melanoma = system: UACC-257 melanoma
KM12 colon = system: KM12 colon
HCC-2998 colon = system: HCC-2998 colon
SN12C renal = system: SN12C renal
COLO 205 colon = system: COLO 205 colon
OVCAR-3 ovarian = system: OVCAR-3 ovarian
NCI-H226 lung = system: NCI-H226 lung
HCT-15 colon = system: HCT-15 colon
IGROV1 ovarian = system: IGROV1 ovarian
NCI/ADR-RES ovarian = system: NCI/ADR-RES ovarian
LOX IMVI melanoma = system: LOX IMVI melanoma
CAKI-1 renal = system: CAKI-1 renal
CCRF-CEM leukemia = system: CCRF-CEM leukemia
RXF 393 renal = system: RXF 393 renal
BT-549 breast = system: BT-549 breast
MDA-MB-435 = system: MDA-MB-435
MALME-3M melanoma = system: MALME-3M melanoma
DU-145 prostate = system: DU-145 prostate
SF-539 CNS = system: SF-539 CNS
RPMI-8226 leukemia = system: RPMI-8226 leukemia
OVCAR-4 ovarian = system: OVCAR-4 ovarian
ACHN renal = system: ACHN renal
OVCAR-8 ovarian = system: OVCAR-8 ovarian
NCI-H23 lung = system: NCI-H23 lung
SNB-19 CNS = system: SNB-19 CNS
U251 CNS = system: U251 CNS
HL-60(TB) leukemia = system: HL-60(TB) leukemia
SK-OV-3 ovarian = system: SK-OV-3 ovarian
HT29 colon = system: HT29 colon
NCI-H522 lung = system: NCI-H522 lung
SF-295 CNS = system: SF-295 CNS
HOP-62 NSCLC = system: HOP-62 NSCLC
T-47D breast = system: T-47D breast

`Fc1cc(Nc2ccc3c(OCCCN4CCOCC4)cccc3n2)ccc1Cl` gave a GI50 (TK-10 renal) of 2.01 µM, a TGI (TK-10 renal) of 4.1 µM and a GI50 (MOLT-4 leukemia) of 1.68 µM. For the same compound, the TGI (MOLT-4 leukemia) was 3.88 µM, the GI50 (M14 melanoma) was 2.05 µM and the TGI (M14 melanoma) was 4.42 µM. For the same compound, the GI50 (SNB-75 CNS) was 1.86 µM, the TGI (SNB-75 CNS) was 6.2 µM and the GI50 (OVCAR-5 ovarian) was 2.13 µM. It also gave a TGI (OVCAR-5 ovarian) of 4.88 µM, a GI50 (K-562 leukemia) of 1.91 µM and a TGI (K-562 leukemia) of 4.38 µM. It also gave a GI50 (786-0 renal) of 1.79 µM, a TGI (786-0 renal) of 3.53 µM and a GI50 (SK-MEL-5 melanoma) of 2.1 µM. It also gave a TGI (SK-MEL-5 melanoma) of 4.39 µM, a GI50 (HOP-92 NSCLC) of 2.4 µM and a TGI (HOP-92 NSCLC) of 6.26 µM. For the same compound, the GI50 (HS 578T breast) was 2.19 µM, the TGI (HS 578T breast) was 6 µM and the GI50 (UACC-62 melanoma) was 2.32 µM. The TGI (UACC-62 melanoma) was 5.61 µM, the GI50 (EKVX NSCLC) was 2.37 µM and the TGI (EKVX NSCLC) was 6.2 µM. It also gave a GI50 (UO-31 renal) of 1.65 µM, a TGI (UO-31 renal) of 4.11 µM and a GI50 (SF-268 CNS) of 3.13 µM. The TGI (SF-268 CNS) was 17 µM, the GI50 (A498 renal) was 2.42 µM and the TGI (A498 renal) was 6.73 µM. The GI50 (SR leukemia) was 1.69 µM, the TGI (SR leukemia) was 6.64 µM and the GI50 (PC-3 prostate) was 2.08 µM. For the same compound, the TGI (PC-3 prostate) was 5.83 µM, the GI50 (SK-MEL-28 melanoma) was 1.82 µM and the TGI (SK-MEL-28 melanoma) was 3.56 µM. For the same compound, the GI50 (HCT-116 colon) was 2.76 µM, the TGI (HCT-116 colon) was 7.16 µM and the GI50 (A549 NSCLC) was 2.96 µM. It also gave a TGI (A549 NSCLC) of 8.47 µM, a GI50 (SK-MEL-2 melanoma) of 1.96 µM and a TGI (SK-MEL-2 melanoma) of 4.04 µM. For the same compound, the GI50 (UACC-257 melanoma) was 2.18 µM, the TGI (UACC-257 melanoma) was 4.25 µM and the GI50 (KM12 colon) was 2.3 µM. It also gave a TGI (KM12 colon) of 5.46 µM, a GI50 (HCC-2998 colon) of 1.78 µM and a TGI (HCC-2998 colon) of 3.49 µM. For the same compound, the GI50 (SN12C renal) was 4.36 µM, the TGI (SN12C renal) was 19.3 µM and the GI50 (COLO 205 colon) was 1.82 µM. For the same compound, the TGI (COLO 205 colon) was 3.43 µM, the GI50 (OVCAR-3 ovarian) was 3.08 µM and the TGI (OVCAR-3 ovarian) was 10.1 µM. For the same compound, the GI50 (NCI-H226 lung) was 2.76 µM, the TGI (NCI-H226 lung) was 7.83 µM and the GI50 (HCT-15 colon) was 1.4 µM. The TGI (HCT-15 colon) was 3.06 µM, the GI50 (IGROV1 ovarian) was 3.19 µM and the TGI (IGROV1 ovarian) was 9.32 µM. It also gave a GI50 (NCI/ADR-RES ovarian) of 3.09 µM, a TGI (NCI/ADR-RES ovarian) of 11.2 µM and a GI50 (LOX IMVI melanoma) of 1.71 µM. It also gave a TGI (LOX IMVI melanoma) of 3.17 µM, a GI50 (CAKI-1 renal) of 1.89 µM and a TGI (CAKI-1 renal) of 5.1 µM. It also gave a GI50 (CCRF-CEM leukemia) of 2.48 µM, a TGI (CCRF-CEM leukemia) of 8.66 µM and a GI50 (RXF 393 renal) of 2.16 µM. For the same compound, the TGI (RXF 393 renal) was 4.74 µM, the GI50 (BT-549 breast) was 5.16 µM and the TGI (BT-549 breast) was 18.7 µM. It also gave a GI50 (MDA-MB-435) of 2.05 µM, a TGI (MDA-MB-435) of 4.83 µM and a GI50 (MALME-3M melanoma) of 1.91 µM. The TGI (MALME-3M melanoma) was 4.36 µM, the GI50 (DU-145 prostate) was 3.62 µM and the TGI (DU-145 prostate) was 13.1 µM. The GI50 (SF-539 CNS) was 1.95 µM, the TGI (SF-539 CNS) was 4.01 µM and the GI50 (RPMI-8226 leukemia) was 2.64 µM. It also gave a TGI (RPMI-8226 leukemia) of 6.97 µM, a GI50 (OVCAR-4 ovarian) of 3.75 µM and a TGI (OVCAR-4 ovarian) of 88.5 µM. For the same compound, the GI50 (ACHN renal) was 3.09 µM, the TGI (ACHN renal) was 10.8 µM and the GI50 (OVCAR-8 ovarian) was 4.03 µM. The TGI (OVCAR-8 ovarian) was 15.3 µM, the GI50 (NCI-H23 lung) was 2.21 µM and the TGI (NCI-H23 lung) was 5.38 µM. It also gave a GI50 (SNB-19 CNS) of 2.21 µM, a TGI (SNB-19 CNS) of 5.29 µM and a GI50 (U251 CNS) of 1.85 µM. It also gave a TGI (U251 CNS) of 3.75 µM, a GI50 (HL-60(TB) leukemia) of 2.68 µM and a TGI (HL-60(TB) leukemia) of 7.77 µM. For the same compound, the GI50 (SK-OV-3 ovarian) was 2.24 µM, the TGI (SK-OV-3 ovarian) was 4.72 µM and the GI50 (HT29 colon) was 1.53 µM. It also gave a TGI (HT29 colon) of 3 µM, a GI50 (NCI-H522 lung) of 1.72 µM and a TGI (NCI-H522 lung) of 3.35 µM. The GI50 (SF-295 CNS) was 1.97 µM, the TGI (SF-295 CNS) was 3.96 µM and the GI50 (HOP-62 NSCLC) was 1.71 µM. For the same compound, the TGI (HOP-62 NSCLC) was 3.43 µM, the GI50 (T-47D breast) was 2.27 µM and the TGI (T-47D breast) was 7.16 µM.
